Biological target: Dihydroorotate dehydrogenase (quinone), mitochondrial (Homo sapiens, UniProt Q02127)
Sequence (Q02127 whole entry): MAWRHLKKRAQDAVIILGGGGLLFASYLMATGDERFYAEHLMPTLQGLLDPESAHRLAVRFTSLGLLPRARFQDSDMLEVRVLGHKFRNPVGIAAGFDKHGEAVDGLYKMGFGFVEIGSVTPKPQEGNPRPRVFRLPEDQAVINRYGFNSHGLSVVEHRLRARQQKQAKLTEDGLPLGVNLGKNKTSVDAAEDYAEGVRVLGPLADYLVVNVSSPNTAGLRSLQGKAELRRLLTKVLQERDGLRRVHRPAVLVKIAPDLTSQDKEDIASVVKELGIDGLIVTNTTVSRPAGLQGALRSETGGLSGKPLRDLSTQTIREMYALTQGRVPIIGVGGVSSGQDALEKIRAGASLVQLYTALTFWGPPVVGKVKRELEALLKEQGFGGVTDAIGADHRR
Method: Briefly, the hDHODH concentration was adjusted in a way that an average slope of approximately 0.2 AU/min served as the positive control (e.g. without inhibitor). The standard assay mixture contained 60 μM 2,6-dichloroindophenol, 50 μM decylubiquinone and 100 μM dihydroorotate. The hDHODH enzyme with or without at least six different concentrations of the compounds was added and measurements were performed in 50 mM TrisHCl, 150 mM KCl and 0.1% Triton X-100 at pH 8.0 and at 30° C. The reaction was started by adding dihydroorotate and measuring the absorption at 600 nm for 2 min. For the determination of the IC50 values, each data point was recorded in triplicate. For the determination of the inhibitory constant Ki, the KM values for DHO and decylubichinon were determined. Afterwards, the compounds were diluted in a dilution series depending on their IC50 values in DMSO.

SMILES | Ki
O=C(Nc1c(F)c(F)c(-c2cccc(OC(F)(F)F)c2)c(F)c1F)c1ccsc1C(=O)O [US20240199535, Example 4] | 0.0037 µM
O=C(O)C1=C(C(=O)Nc2ccc(-c3cccc(OC(F)F)c3)cc2F)CCC1 [US20240199535, Example 5] | 1.82 µM

Reference: BindingDB's records for patent US20240199535 (Immunic, 2024)
